How the values were obtained:
[1] = parameters: method as in protocol Section 1.4.1.2; settings: local lymph node assay in the mouse; ref protocol Section 1.4.1.2; cited from earlier work
[2] = system: reverse transcriptase (RT), protease, and integrase inhibitor-resistant viruses; settings: cited from earlier work
[3] = system: HIV-1; experiment: Phase IIb study 205891: plasma HIV-1 RNA response at Week 24 (FDA snapshot, observed); format: in vivo, HIV-1-infected adults; settings: Week 24, mITT; GSK3532795: range across 60, 120, 180 mg arms; EFV 600 mg; each + TDF/FTC
Procedure: The primary endpoint was determination of the proportion of participants with plasma HIV-1 RNA <40 copies/mL at Week 24 after treatment with GSK3532795 or efavirenz (EFV).
205891 was a Phase IIb, randomized, active-controlled, double-blind trial performed at 58 sites in 12 countries across South America, North America, South Africa, and Europe. Participants were randomized 1:1:1:1 to one of four treatment arms; GSK3532795 at doses of 60 mg, 120 mg or 180 mg once daily (QD), and one reference arm with EFV at a dose of 600 mg QD, each given in combination with TDF/FTC 300/200 mg QD.
Participants attended study visits at screening, on Day 1, and once every 4 weeks from Week 4 to Week 24 (telephonic visits were conducted at Week 20). Participants were expected to continue treatment, then, through Week 96, with visit intervals every 8–12 weeks. A post-dose safety follow-up visit was also conducted 12 weeks after treatment discontinuation. Plasma HIV-1 RNA levels were quantified by the Abbott RealTime HIV-1 assay.
The FDA-defined snapshot algorithm was used for primary endpoint efficacy assessment, using the last plasma HIV-1 RNA value in the pre-defined Week 24 visit window (± 6 weeks) to determine response. The modified intent-to-treat (mITT) population consisted of participants who received at least one dose of GSK3532795 or EFV. […]

[4] = target: broad range of enzymes, transporters, and receptors, including cardiac ion channels; parameters: method as in protocol Section 1.4.1.2; settings: ref protocol Section 1.4.1.2; read-out: IC50 or EC50 for in vitro off-target interactions; cited from earlier work
[5] = system: P-gp; parameters: method as in protocol Section 1.4.1.2; settings: ref protocol Section 1.4.1.2; cited from earlier work
[6] = Population PK model (NONMEM); format: in vivo, HIV-1-infected adults
Procedure: Population PK analyses were conducted via non-linear mixed effects using non-linear mixed-effects modeling (NONMEM) software, version 7, level 2.0 (ICON Development Solutions, Hanover, Maryland, USA).[17] A summary of the population PK modeling methods and exposure response exploratory analyses for efficacy and safety is included in Supporting information.
Population pharmacokinetic (PK) analyses were conducted via nonlinear mixed-effects modelling using nonlinear mixed effects modeling (NONMEM) software, version 7, level 2.0 (ICON Development Solutions, Hanover, MD). Assessment of model adequacy and decision about increasing model complexity was driven by the data and guided by goodness-of-fit criteria, including visual inspection of diagnostic scatter plots (observed versus predicted concentration, residual/weighted residual versus predicted concentration or time and histograms of individual random effects, for example), successful convergence of the minimization routine, plausibility of parameter estimates, precision of parameter estimates, correlation between model parameter estimation errors < 0.95, and the Akaike information criterion (AIC), given the minimum objective function value and number of estimated parameters. An exploratory investigation of covariate-parameter relationships was undertaken as part of the population PK analysis. Predictive performance was assessed using stratified non-parametric bootstrapping (n=500). Following the construction of a suitable PK model, individual-specific steady-state exposure metrics were derived for exposure-response investigation. An exploratory plotting analysis was performed to investigate exposure–response relationships for efficacy and safety endpoints, where endpoints including fraction of participants with <40 c/mL at Week 24 (modified intent-to-treat population) and percentage of participants with Grade 1, 2, 3, and 4 gastrointestinal events (adverse events >7 days) were analysed as a function of exposure quantiles.

[7] = system: HIV-1; parameters: method as in protocol Section 1.4.1.2; settings: with representative drugs from NRTI, NNRTI, PI, and INI classes; ref protocol Section 1.4.1.2; cited from earlier work
[8] = parameters: method as in protocol Section 1.4.1.2; settings: ref protocol Section 1.4.1.2; cited from earlier work
[9] = cited from earlier work
[10] = system: OCT2; parameters: method as in protocol Section 1.4.1.2; settings: preliminary data; ref protocol Section 1.4.1.2; cited from earlier work

SMILES: C=C(C)[C@@H]1CC[C@]2(NCCN3CCS(=O)(=O)CC3)CC[C@]3(C)[C@H](CC[C@@H]4[C@@]5(C)CC=C(c6ccc(C(=O)O)cc6)C(C)(C)[C@@H]5CC[C@]43C)[C@@H]12 [GSK3532795]
- Skin sensitization [1]: not a skin sensitizer
- Activity against RT, protease, and integrase inhibitor-resistant viruses ([2]; EC50 values similar to wild-type, ref protocol Section 1.4.1.2): retains complete activity
- Activity against a panel of PI-resistant isolates from PI-treated subjects ([2]; major and minor PI-resistance determinants in protease and Gag): maintained activity
- Participants achieving HIV-1 RNA <40 copies/mL [3]: 76–83%
- IC50 [4]: > 5 µM
- P-gp inhibition [5]: No P-gp inhibition
- Reduction in clearance in African-American participants ([6]; compared with White participants): 23%
- Additive residual error ([6]; final population PK model): 37400
- First-order absorption rate (Ka), estimate ([6]; final population PK model): 0.0236 h⁻¹
- Interindividual variance of CL ([6]; final population PK model): 0.0610
- Interindividual variance of Ka ([6]; final population PK model): 0.164
- Interindividual variance of V ([6]; final population PK model): 0.462
- Interoccasion variance of F1 ([6]; final population PK model): 0.0512
- Proportional residual error ([6]; final population PK model): 0.0165
- clearance ([6]; human, in vivo, oral, final population PK model, read-out: Clearance (CL), estimate (converted)): 37.3 mL/min
- Vd ([6]; human, in vivo, oral, final population PK model, read-out: Volume of distribution (V), estimate): 5.58 L
- Increase in clearance in participants with Grade ≥2 diarrhea ([6]; relative to no diarrhea): 18%
- Effect of 2-drug combinations [7]: additive to synergistic effects
- Route of elimination [8]: eliminated principally via metabolism followed by excretion in bile with little renal excretion
- Tissue distribution [8]: distributed preferentially into the duodenum, liver, and lymph nodes with little penetration into the brain
- Increase in serum ALT activity ([9]; 20 mg/kg/day, 1 female, ref protocol Section 1.4.1.2): 2.10 × pretest
- Loss of body weight ([9]; 20 mg/kg/day, 2 females, ref protocol Section 1.4.1.2): up to 8%
- NOAEL ([9]; dog, in vivo): 8 mg/kg/day
- NOAEL dose (heart rate) ([9]; dog, in vivo): 20 mg/kg/day
- Inhibition of OCT2 [10]: does not inhibit OCT2

— PMC6198970, “Safety, efficacy, and dose response of the maturation inhibitor GSK3532795 (formerly known as BMS-955176) plus tenofovir/emtricitabine once daily in treatment-naive HIV-1-infected adults: Week 24 primary analysis from a randomized Phase IIb trial” (PLoS ONE, 2018)
